Among the data in PubChem BioAssay (NCI) are GI50 and TGI values, retold here.

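Briefly, cells in 96-well plates were exposed to five compound concentrations for 48 h, and endpoints were estimated by linear interpolation. GI50: concentration for 50% inhibition of growth. TGI: concentration producing complete growth inhibition.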

Some test systems named below: CAKI-1 renal; CCRF-CEM leukemia; HS 578T breast; K-562 leukemia; MCF7 breast; MDA-MB-231 breast; SF-295 CNS; SF-539 CNS; SK-MEL-28 melanoma; TK-10 renal.
Common to all, as to assay: growth of human tumour cells (NCI), 48 h

Take `COC(=O)Nc1nc2ccc(C(=O)c3cccc(I)c3)cc2[nH]1`: the GI50 in the assay with CAKI-1 renal was 0.0538 µM; in the assay on CCRF-CEM leukemia, 0.0402 µM; in the assay on HS 578T breast, 0.0904 µM; with K-562 leukemia it was 0.0364 µM; in the assay on MCF7 breast, 0.0369 µM; with MDA-MB-231 breast, 0.166 µM. In addition, the GI50 in the assay on SF-295 CNS was 0.0647 µM; in the assay with SF-539 CNS, 0.0589 µM; in the assay with SK-MEL-28 melanoma it was 1.13 µM; in the assay on TK-10 renal, 6.37 µM. Further, the TGI stood at 11.2 µM with CAKI-1 renal; 5.26 µM with CCRF-CEM leukemia; 25.7 µM in the assay on HS 578T breast; 14.2 µM in the assay with K-562 leukemia; 15.9 µM with MCF7 breast; 5.52 µM in the assay on MDA-MB-231 breast. The TGI is 5.94 µM with SF-295 CNS, 0.384 µM in the assay with SF-539 CNS, more than 81.2 µM in the assay on SK-MEL-28 melanoma and 32.7 µM with TK-10 renal.

For `COc1cc(OC)c(/C=C/C(=O)c2c(OC)cc(OC)cc2OC)c(OC)c1`, the GI50 in the assay with CAKI-1 renal was 1.66 µM; with CCRF-CEM leukemia, 0.876 µM; in the assay with HS 578T breast it was 1.39 µM; with K-562 leukemia it was 0.394 µM; in the assay with MCF7 breast it was 1.41 µM; with MDA-MB-231 breast it was 1.51 µM. Also, the GI50 is 0.75 µM in the assay with SF-295 CNS, 1.27 µM in the assay with SF-539 CNS, 0.855 µM in the assay with SK-MEL-28 melanoma and 3.31 µM in the assay on TK-10 renal. The TGI in the assay on CAKI-1 renal was more than 37.2 µM; in the assay with CCRF-CEM leukemia, more than 100 µM; in the assay with HS 578T breast, 6.37 µM; in the assay on K-562 leukemia, more than 100 µM; with MCF7 breast, more than 100 µM; in the assay on MDA-MB-231 breast, 31.1 µM. In addition, the TGI in the assay on SF-295 CNS is more than 21 µM; in the assay on SF-539 CNS it was 3.31 µM; in the assay on SK-MEL-28 melanoma it was 5.24 µM; in the assay on TK-10 renal, more than 100 µM.

In the case of `C=CCc1c(O)c(C(=O)/C=C/c2ccc(Cl)cc2)c(OC)c2ccoc12`, the GI50 in the assay on CAKI-1 renal was 2.61 µM; in the assay on CCRF-CEM leukemia, 3.33 µM; with HS 578T breast, 4.02 µM; in the assay on K-562 leukemia, 3.25 µM; in the assay with MCF7 breast, 2.51 µM; in the assay with MDA-MB-231 breast, 4.3 µM. For the same molecule, the GI50 in the assay on SF-295 CNS was 2.77 µM; with SF-539 CNS, 1.79 µM; in the assay on SK-MEL-28 melanoma, 2.32 µM; with TK-10 renal, 3.62 µM. Further, the TGI was 11.6 µM in the assay on CAKI-1 renal; more than 100 µM in the assay with CCRF-CEM leukemia; 42.4 µM in the assay on HS 578T breast; more than 100 µM in the assay with K-562 leukemia; 11.4 µM in the assay on MCF7 breast; 16.8 µM in the assay on MDA-MB-231 breast. Further, the TGI stood at 9.56 µM in the assay with SF-295 CNS, 3.85 µM with SF-539 CNS, 5.53 µM with SK-MEL-28 melanoma and 12.9 µM in the assay on TK-10 renal.

As for `CCN1CCN(C(=O)[C@]23CC[C@@H](C)[C@H](C)[C@@H]2C2=CC[C@@H]4[C@@]5(C)CCC(=O)C(C)(C)[C@@H]5CC[C@@]4(C)[C@]2(C)CC3)CC1`, the GI50 with CAKI-1 renal is 0.946 µM; in the assay with CCRF-CEM leukemia, 0.976 µM; in the assay on HS 578T breast, 1.07 µM; with K-562 leukemia, 0.994 µM; in the assay with MCF7 breast it was 0.891 µM; in the assay on MDA-MB-231 breast it was 0.779 µM. In addition, the GI50 was 0.82 µM in the assay with SF-295 CNS, 0.843 µM with SF-539 CNS, 0.889 µM with SK-MEL-28 melanoma and 1.27 µM in the assay with TK-10 renal. For the same molecule, the TGI stood at 2.96 µM in the assay with CAKI-1 renal; 2.74 µM in the assay with CCRF-CEM leukemia; 2.68 µM in the assay on HS 578T breast; 2.9 µM with K-562 leukemia; 2.03 µM in the assay on MCF7 breast; 1.5 µM with MDA-MB-231 breast. In addition, the TGI in the assay with SF-295 CNS worked out at 1.59 µM; in the assay with SF-539 CNS, 1.54 µM; in the assay on SK-MEL-28 melanoma, 1.7 µM; with TK-10 renal, 4.14 µM.

For `CC(C)(C)NCC(O)c1ccccc1Cl` (stereo not given), the GI50 in the assay with CAKI-1 renal, in the assay with CCRF-CEM leukemia, in the assay with HS 578T breast, with K-562 leukemia, in the assay on MCF7 breast and in the assay with MDA-MB-231 breast was more than 100 µM throughout. Further, the GI50 with SF-295 CNS, with SF-539 CNS, in the assay with SK-MEL-28 melanoma and with TK-10 renal was more than 100 µM each time. Also, the TGI in the assay with CAKI-1 renal, in the assay on CCRF-CEM leukemia, in the assay on HS 578T breast, in the assay on K-562 leukemia, in the assay with MCF7 breast and with MDA-MB-231 breast was more than 100 µM each time. Also, the TGI in the assay on SF-295 CNS, with SF-539 CNS, in the assay on SK-MEL-28 melanoma and in the assay with TK-10 renal was more than 100 µM in each case.

In the case of `CC(C)[C@@H](C(=O)O[C@@H]1/C=C/C(=O)O[C@@H](C)CCC/C=C/[C@@H]2C[C@H](O)C[C@H]21)N(C)C`, the GI50 with CAKI-1 renal was 11.9 µM; in the assay with CCRF-CEM leukemia, 7.84 µM; with HS 578T breast, 6.4 µM; in the assay on K-562 leukemia, 20.3 µM; with MCF7 breast, 11.9 µM; in the assay on MDA-MB-231 breast, 20.2 µM. Moreover, the GI50 in the assay on SF-295 CNS was 6 µM; in the assay with SF-539 CNS, 22.5 µM; with SK-MEL-28 melanoma it was 6.03 µM; in the assay with TK-10 renal, 12.4 µM. For the same molecule, the TGI is 42.8 µM with CAKI-1 renal; 35.1 µM in the assay on CCRF-CEM leukemia; 50.5 µM in the assay on HS 578T breast; 50.7 µM in the assay on K-562 leukemia; 43.1 µM with MCF7 breast; 63.2 µM in the assay with MDA-MB-231 breast. Further, the TGI was found to be 24.9 µM in the assay on SF-295 CNS, 67.4 µM in the assay on SF-539 CNS, 23.5 µM in the assay on SK-MEL-28 melanoma and 51.4 µM in the assay on TK-10 renal.

In the case of `NS(=O)(=O)c1ccc(-n2nc3c(c2-c2cccs2)Cc2ccccc2-3)cc1`, the GI50 was 10.1 µM in the assay with CAKI-1 renal; 4.24 µM with CCRF-CEM leukemia; 16.1 µM in the assay with HS 578T breast; 0.858 µM in the assay on K-562 leukemia; more than 100 µM in the assay on MCF7 breast; 17.3 µM in the assay on MDA-MB-231 breast. The GI50 is 13.8 µM in the assay with SF-295 CNS, 12.1 µM in the assay on SF-539 CNS, 25.8 µM in the assay on SK-MEL-28 melanoma and 12.2 µM with TK-10 renal. For the same molecule, the TGI with CAKI-1 renal was 22.7 µM; in the assay with CCRF-CEM leukemia it was 28.7 µM; with HS 578T breast, 51 µM; in the assay with K-562 leukemia, 3.55 µM; in the assay with MCF7 breast it was more than 100 µM; in the assay on MDA-MB-231 breast, 36.2 µM. Moreover, the TGI turned out to be 31.4 µM in the assay with SF-295 CNS, 25.1 µM in the assay on SF-539 CNS, 58.4 µM in the assay on SK-MEL-28 melanoma and 38.7 µM in the assay on TK-10 renal.

Turning to `Oc1c(C(Nc2ccccn2)c2ccccc2)ccc2cccnc12` (stereo not given), the TGI in the assay on CAKI-1 renal was more than 87.4 µM; with CCRF-CEM leukemia it was 3.81 µM; in the assay on HS 578T breast, more than 87.9 µM; in the assay on K-562 leukemia, 24.9 µM; with MCF7 breast, more than 100 µM; in the assay on MDA-MB-231 breast, 16.4 µM. In addition, the TGI is more than 30.3 µM in the assay on SF-295 CNS, 9.68 µM with SF-539 CNS, more than 100 µM with SK-MEL-28 melanoma and more than 25.9 µM in the assay with TK-10 renal.

As to `Cc1cc(N(CCC#N)S(=O)(=O)c2ccccc2)ccc1C=Nc1ccc(C(=O)O)cc1`, the TGI is 5.73 µM with CAKI-1 renal; more than 26.5 µM in the assay on CCRF-CEM leukemia; more than 100 µM with HS 578T breast; 17.9 µM with K-562 leukemia; more than 100 µM in the assay with MCF7 breast; more than 100 µM in the assay with MDA-MB-231 breast. Besides, the TGI was 44.8 µM in the assay with SF-295 CNS, 30.7 µM in the assay on SF-539 CNS, 28.3 µM in the assay with SK-MEL-28 melanoma and 17.9 µM with TK-10 renal.

As for `CC(NNC(=S)N1CCN(c2ccccn2)CC1)c1nccc2ccccc12` (stereo not given), the TGI in the assay on CAKI-1 renal was 10.3 µM; in the assay on CCRF-CEM leukemia, 1.02 µM; in the assay with HS 578T breast, 61.6 µM; in the assay with K-562 leukemia it was 14.2 µM; with MCF7 breast, 14.3 µM; in the assay on MDA-MB-231 breast, 16.8 µM. In addition, the TGI with SF-295 CNS was found to be 11.9 µM; in the assay with SF-539 CNS, 6.43 µM; in the assay with SK-MEL-28 melanoma it was 18.5 µM; in the assay on TK-10 renal it was 16.3 µM.

Regarding `COc1nn(C)cc1Nc1nccc(-c2c[nH]c3c(NC(=O)[C@@H](C)N4CCN(C)CC4)cccc23)n1`, the GI50 is 29.2 µM in the assay on CAKI-1 renal; 40.4 µM in the assay on CCRF-CEM leukemia; 27 µM with HS 578T breast; 29.2 µM with K-562 leukemia; 31.7 µM in the assay with MCF7 breast; 34.9 µM with MDA-MB-231 breast. The GI50 in the assay with SF-295 CNS was 28 µM; with SF-539 CNS, 18 µM; in the assay with SK-MEL-28 melanoma, 53.9 µM; in the assay with TK-10 renal, 44.1 µM. Also, the TGI with CAKI-1 renal, in the assay with CCRF-CEM leukemia, in the assay on HS 578T breast, in the assay on K-562 leukemia, in the assay with MCF7 breast and with MDA-MB-231 breast was more than 100 µM throughout. Moreover, the TGI was 99.4 µM in the assay with SF-295 CNS, 38.4 µM in the assay on SF-539 CNS, more than 100 µM in the assay with SK-MEL-28 melanoma and more than 100 µM in the assay on TK-10 renal.

For `CC(=O)OC1CC2(C)C(=CC1C1SCCS1)CCC1C2CCC2(C)C(OC(C)=O)CCC12` (stereo not given), the TGI in the assay with CAKI-1 renal is more than 100 µM; in the assay on CCRF-CEM leukemia, more than 100 µM; in the assay on HS 578T breast it was 49.9 µM; with K-562 leukemia, more than 100 µM; with MCF7 breast, more than 100 µM; in the assay on MDA-MB-231 breast, more than 100 µM. The TGI with SF-295 CNS is 90 µM; in the assay on SF-539 CNS, more than 100 µM; in the assay on SK-MEL-28 melanoma it was more than 100 µM; in the assay with TK-10 renal, more than 100 µM.

Regarding `c1ccc2c(N=NSc3ncnc4nc[nH]c34)c3ccccc3nc2c1`, the GI50 is 1.76 µM in the assay with CAKI-1 renal; 1.31 µM in the assay with CCRF-CEM leukemia; 2.6 µM in the assay on HS 578T breast; 1.58 µM in the assay with K-562 leukemia; 0.37 µM in the assay on MCF7 breast; 1.24 µM with MDA-MB-231 breast. For the same molecule, the GI50 with SF-295 CNS is 1.13 µM; in the assay with SF-539 CNS it was 1.1 µM; in the assay on SK-MEL-28 melanoma, 1.78 µM; with TK-10 renal, 1.77 µM. Further, the TGI in the assay with CAKI-1 renal was 7.07 µM; with CCRF-CEM leukemia, 6.66 µM; in the assay on HS 578T breast, 7.21 µM; in the assay on K-562 leukemia, 11.1 µM; with MCF7 breast, 10.4 µM; with MDA-MB-231 breast, 6.11 µM. The TGI amounted to 9.63 µM with SF-295 CNS, 3.55 µM in the assay on SF-539 CNS, 3.71 µM in the assay with SK-MEL-28 melanoma and 6.37 µM in the assay with TK-10 renal.
